The results in this text go back to US7842324B2 (Senomyx, Inc., priority 2005, dated 2010).

One experiment relates to tasters. In words: Reduced sugar ice cream sensory evaluation. It is filed as in vivo, human. To be noted: for Average Sweet Intensity Score: scale 1 to 10. How it is done:
A water soluble liquid sweetener concentrate composition comprising 0.1% by weight of Example 23 in USP grade propylene glycol can be prepared by mixing the amide compound and propylene glycol by stirring the composition while warming to about 50° C., then milling the resulting liquid in a Silverson mill with a square basket cage at 300-600 rpms, to further ensure homogeneity of the liquid. An alternative method actually used was that the amide compound was dissolved in ethanol (1:1000 dilution), sonicated for 20 minutes, and 19.80 grams of the diluted sweet enhancer sample was added to the vanilla flavoring (which contains 20-30% ethyl alcohol) and sonicate that sample for an additional 20 minutes.
Heavy cream and whole milk were placed into a 5000 mL stainless steel cylinder and mixed using a LIGHTNIN™ Mixer at 500 to 650 rpms using a 2.5 inch (6.35 cm) impeller with three straight blades. A vortex was created by positioning the impeller blades at a 30 to 45° angle. The sweet enhancer was added using the vanilla/ethanol mixture. Some milk/cream was added back to the weigh dish of the sweet enhancer to ensure all the amide compound was removed from the weigh dish. The sugar/stabilizer mixture was slowly added to the vortex of the mixing milk/cream solution. The resulting solution was mixed for 10 minutes until the sugar dissolved and the stabilizer rehydrated. Care was taken to ensured that no lumps or undissolved stabilizer existed in the solution. The remaining sugar was added to the vortex and mixing was continued for an additional 10 minutes. Egg yolks and vanilla flavor were next added and the mixing continued for 5 more minutes.
Ice cream samples were evaluated by tasters, using a rank rating design. Tasters used an anchored scale from 1 to 10 (1 being no sweetness, 10 being intense sweetness). Three digit coded samples were randomized and the following samples were given to tasters: full sugar version, ⅔ sugared version, ⅔ sugared+3.3 ppm or 6.6 ppm of compound 23. Tasters were instructed to hold the ice cream samples in their mouth for at least 5 seconds, expectorate the sample, and evaluate/rank the “peak” of sweetness intensity.

The next experiment relates to Human Panelists. Briefly: Line Scale sensory testing human taste test (Table C). It is filed as in vivo. To be noted: 5 μM compound + 6% fructose/glucose, low sodium buffer pH 7.1. From the text: Purpose: To create a dose-response curve for perceived sweetness intensity of fructose-glucose concentrations. Test samples containing experimental compound are compared to this dose-response curve to determine equivalent sweetness intensity. This type of study requires a number of evaluations in order to obtain statistically significant data, so the test may be repeated with the same or additional panelists.
Overview: A group of eight or more panelists taste solutions including fructose-glucose at various concentrations, as well as the experimental compound, both with and without added fructose-glucose. Panelists rate sweetness intensity of all samples on an unstructured horizontal line scale, anchored from 0 to 10, where 0 equals no sweetness and 10 equals intense sweetness. Scores for sweetness intensity are averaged across panelists. Then using the average scores and/or equation of the line for the fructose-glucose dose-response curve, equivalent sweetness fructose-glucose concentrations are determined for the samples containing experimental compound.
Procedure: Eight or more subjects are used for the Line Scale tests. Subjects have been previously familiarized with the key attribute taste and are trained to use the 0 to 10 unstructured line scale. Subjects refrain from eating or drinking (except water) for at least 1 hour prior to the test. Subjects eat a cracker and rinse with water several times to clean the mouth.
Fructose-glucose solutions are provided at a wide range of concentrations, such as 0%, 2%, 4%, 6%, 8%, and 10% fructose-glucose, in order to create the dose-response curve. Samples containing experimental compound are prepared both alone and in a 6% fructose-glucose solution. All samples are made up in low sodium buffer pH 7.1. In order to aid dispersion, solutions can also be made up in 0.1% ethanol.
The solutions are dispensed in 20 ml volumes into 1 oz. sample cups and served to the subjects at room temperature. All samples are presented in randomized counterbalanced order to reduce response bias. Further, two sessions of testing may be used to check panel precision.
Subjects taste each sample individually and rate sweetness intensity on the line scale prior to tasting the next sample. All samples are expectorated. Subjects may retaste the samples but can only use the volume of sample given. Subjects must rinse with water between samples. Eating an unsalted cracker between sample pairs may be required depending on the samples tasted.
The scores for each sample are averaged across subjects and standard error is calculated. The dose-response curve is plotted graphically, and this may be used to ensure the panel is rating accurately; i.e. increasing the concentration of fructose-glucose should correspond to increased average scores for sweetness. A 2-way ANOVA (factors being samples and panelists) and multiple comparison tests (such as Tukey's Honestly Significant Difference test) can be used to determine differences among samples and/or panelists. A 3-way ANOVA, with sessions as the third factor, can be used to determine if there is any difference in the ratings between sessions.

As for `CC(C)CNC(=O)C(C)(C)c1ccc(-c2cncc(C#N)c2)cc1` [Compound 23, 2-(4-(5-cyanopyridin-3-yl)phenyl)-N-isobutyl-2-methylpropanamide], the “sweetness compared with ⅔ sugared control ice cream” value in the experiment on tasters (3.3 ppm and 6.6 ppm in ⅔ sugared ice cream) is given as “scored higher in sweetness than the ⅔ sugared control sample”. In the experiment on tasters (6.6 ppm in ⅔ sugared ice cream), the “sweetness compared with fully sugared ice cream” value is given as “nearly as sweet as the fully sugared ice cream”. Also, in the experiment with tasters (ice cream samples containing compound 23), the “Qualitative feedback of tasters” value was ““slight lingering” and “slight delay of sweetness””. Further, the “Average Sweet Intensity Score” value in the experiment on tasters (⅔ sugared ice cream + 3.3 ppm) is on record as 5.143; in the experiment with tasters (⅔ sugared ice cream + 6.6 ppm) it was 7.357. In addition, the “Perceived Equivalent Sweet Solution” value in the experiment on Human Panelists is recorded as “Equal to 10% fructose/ % fructose/glucose”.
